Data as given in publication PMC5928880 (Theranostics, 2018).
Where “and” joins values, the source holds several entries; their conditions need not be identical. Equal values may be shown once. Read-outs that look alike come from different tables or passages of the source. One block for each compound: values may come before it.

How the values were obtained:
Jurkat leukemia cells = test: Antiproliferation assay; format: cell-based, human; settings: for EC50 / inhibition at 50 µM: Jurkat; for EC50: read-out: Antiproliferative activity EC50, Jurkat; for inhibition at 50 µM: read-out: % inhibition at 50 µM, Jurkat; for Effect on growth of Jurkat cells: at 50 µM
SKNO-1 cells = test: Antiproliferation assay; format: cell-based, human
Kasumi-1 cells [1] = test: Antiproliferation assay; format: cell-based, human; settings: read-out: Antiproliferative activity EC50, Kasumi-1
NB4 cells = test: Antiproliferation assay; format: cell-based, human
MV4-11 cells = test: Antiproliferation assay; format: cell-based, human
[2] = tested on: MCF-7 (breast cancer) cells; test: Antiproliferation assay; format: cell-based, human
[3] = tested on: normal fibroblast WI-38 cells; test: Antiproliferation assay; format: cell-based, human
[4] = tested on: murine c-kit+ hematopoietic stem/progenitor cells (HSPC); test: Colony-forming assay with hematopoietic stem/progenitor cells; format: cell-based, mouse; settings: even at 250 nM
SKNO-1 leukemia [5] = test: Subcutaneous xenograft mouse model of SKNO-1 leukemia; format: in vivo; settings: i.p. 10 and 20 mg/kg/day, 10 injections in 14 days, NOD-SCID mice
[6] = tested on: Kasumi-1 and SKNO-1 cells; test: Antiproliferation assay, R-E leukemia cells; format: cell-based, human; settings: more active than Dex
[7] = i.p. 100 mg/kg/day, 10 injections over 14 days
[8] = ref [44], [45]; cited from earlier work
Kasumi-1 cells [9] = test: Combination treatment of Kasumi-1 cells, combination index; format: cell-based, human; settings: Dex in combination with cytarabine, CI < 1 synergism, listed as Dex
SKNO-1 leukemia [10] = settings: 15 mg/kg/day i.p. injection for 4 days, ref [37], cited from earlier work
myeloid leukemia cells = settings: short course (3-7 days), high doses (20-30 mg/kg/day); ref [54]; cited from earlier work
[11] = Homo sapiens, SKNO-1, read-out: Antiproliferative activity EC50, SKNO-1
[12] = Homo sapiens, NB-4, read-out: Antiproliferative activity EC50, NB4
[13] = Homo sapiens, MV4-11, read-out: Antiproliferative activity EC50, MV4-11
[14] = Homo sapiens, MCF7, read-out: Antiproliferative activity EC50, MCF-7
[15] = Homo sapiens, WI-38, read-out: Antiproliferative activity EC50, WI-38

SMILES: C[C@@H]1C[C@H]2[C@@H]3CCC4=CC(=O)C=C[C@]4(C)[C@@]3(F)[C@@H](O)C[C@]2(C)[C@@]1(O)C(=O)COP(=O)(O)O [Dex-P, dexamethasone-21-phosphate]
- EC50 (Kasumi-1 cells [1]): 0.009 µM
- EC50 (Jurkat leukemia cells): > 50 µM
- EC50 (SKNO-1 cells; read-out: Antiproliferative activity EC50, SKNO-1, SKNO-1): 0.017 µM
- EC50 (NB4 cells; read-out: Antiproliferative activity EC50, NB4, NB4): > 50 µM
- EC50 (MV4-11 cells; read-out: Antiproliferative activity EC50, MV4-11, MV4-11): > 50 µM
- EC50 ([2]; read-out: Antiproliferative activity EC50, MCF-7, MCF-7): > 50 µM
- EC50 ([3]; read-out: Antiproliferative activity EC50, WI-38, WI-38): > 50 µM
- Effect on colony-forming ability of murine HSPC [4]: did not significantly affect
- Survival in SKNO-1 xenograft (SKNO-1 leukemia [5]): prolonged survivals
- Tumor growth in SKNO-1 xenograft (SKNO-1 leukemia [5]): significant tumor growth inhibition
- Activity compared to parent compound Dex (fold more active) [6]: ~ 2 fold
- Toxicity to mice [7]: without overt toxicities
- t1/2 in humans [8]: 4.7 h

SMILES: Cc1c(Nc2ncccc2C(=O)O)cccc1C(F)(F)F [Fluninxin]
- EC50 (Kasumi-1 cells [1]): 14.7 µM
- Effect on growth of Jurkat cells (Jurkat leukemia cells): inactive
- EC50 (Jurkat leukemia cells): ~50 µM

SMILES: C[C@@H]1C[C@H]2[C@@H]3CCC4=CC(=O)C=C[C@]4(C)[C@@]3(F)[C@@H](O)C[C@]2(C)[C@@]1(O)C(=O)CO [Dexamethasone, dexamethasone]
- EC50 (Jurkat leukemia cells; Homo sapiens): > 50 µM
- EC50 (SKNO-1 cells; [11]): 0.029 µM
- EC50 (NB4 cells; [12]): > 50 µM
- EC50 (MV4-11 cells; [13]): > 50 µM
- EC50 [2, 14]: > 50 µM
- EC50 [3, 15]: > 50 µM
- Combination index (CI) (Kasumi-1 cells [9]): 0.13-0.75 and 0.13 to 0.75
- In vivo activity (tumor burden) in mouse model of SKNO-1 leukemia (SKNO-1 leukemia [10]): did not reduce in vivo tumor burden
- In vivo activity (tumor burden) in mouse model of SKNO-1 leukemia (SKNO-1 leukemia [10]; listed as Dex): no in vivo activity

SMILES: C[C@H]1C[C@H]2[C@@H]3CCC4=CC(=O)C=C[C@]4(C)[C@@]3(F)[C@@H](O)C[C@]2(C)[C@@]1(O)C(=O)CO [Betamethasone, betamethasone]
- inhibition at 50 µM (Jurkat leukemia cells; Homo sapiens): 6.9%
- EC50 (Jurkat leukemia cells; Homo sapiens): > 50 µM
- Effect on growth of Jurkat cells (Jurkat leukemia cells): did not affect growth
- EC50 (SKNO-1 cells; [11]): 0.059 µM
- EC50 (NB4 cells; [12]): > 50 µM
- EC50 (MV4-11 cells; [13]): > 50 µM
- EC50 [2, 14]: > 50 µM
- EC50 [3, 15]: > 50 µM
- Effect on colony-forming ability of murine HSPC [4]: did not significantly affect

SMILES: CC(=O)c1ccc2c(c1)N(CCCN(C)C)c1ccccc1S2 [Acepromazine, acepromazine]
- inhibition at 50 µM (Jurkat leukemia cells; Homo sapiens): 21%
- EC50 (Jurkat leukemia cells; Homo sapiens): > 50 µM

SMILES: CN(C)/N=N/c1[nH]cnc1C(N)=O [Dacarbazine, dacarbazine]
- EC50 (Jurkat leukemia cells; Homo sapiens): 15.2 µM

SMILES: C[C@H]1C[C@@H]2[C@H]([C@@H](O)C[C@@]3(C)[C@H]2CC[C@]3(O)C(=O)CO)[C@@]2(C)C=CC(=O)C=C12 [methylprednisolone]
- Differentiation of myeloid leukemia cells in children with AML (myeloid leukemia cells): induce differentiation of myeloid leukemia cells

SMILES: CC=CC(=O)N(CC)c1ccccc1C (mixture of isomers) [Crotamiton, crotamiton]
- inhibition at 50 µM (Jurkat leukemia cells; Homo sapiens): 11.2%
- EC50 (Jurkat leukemia cells; Homo sapiens): > 50 µM

SMILES: CO[C@H]1/C=C\C=C(/C)C(=O)NC2=CC(=O)C(NCCN(C)C)=C(C[C@@H](C)C[C@H](OC)[C@H](O)[C@@H](C)/C=C(\C)[C@@H]1OC(N)=O)C2=O [Alvespimycin, alvespimycin]
- EC50 (Jurkat leukemia cells; Homo sapiens): 1.6 µM
- EC50 (NB4 cells; [12]): 0.055 µM
- EC50 (MV4-11 cells; [13]): 0.09 µM
- EC50 [2, 14]: 5.2 µM
- EC50 [3, 15]: 27 µM

Further lines, with some results ahead:

- EC50 (Jurkat leukemia cells; Homo sapiens): > 50 µM
- EC50 (SKNO-1 cells; [11]): 0.15 µM
SMILES: C[C@]12C=CC(=O)C=C1CC[C@@H]1[C@@H]2[C@@H](O)C[C@@]2(C)[C@H]1CC[C@]2(O)C(=O)CO [Prednisolone, prednisolone]

- EC50 (Jurkat leukemia cells; Homo sapiens): > 50 µM
SMILES: CCCNCC(O)COc1ccccc1C(=O)CCc1ccccc1 (centres unmarked) [Propafenone, propafenone]
- inhibition at 50 µM (Jurkat leukemia cells; Homo sapiens): 2.5%

- EC50 (Jurkat leukemia cells; Homo sapiens): > 50 µM
- EC50 (SKNO-1 cells; [11]): 0.41 µM
SMILES: C[C@]12CCC(=O)C=C1CC[C@@H]1[C@@H]2[C@@H](O)C[C@@]2(C)[C@H]1CC[C@]2(O)C(=O)CO [Hydrocortisone, hydrocortisone]

- EC50 (Jurkat leukemia cells; Homo sapiens): > 50 µM
SMILES: COc1ccc2cc(CCC(C)=O)ccc2c1 [Nabumetone]
- EC50 (Kasumi-1 cells [1]): 18.5 µM
- inhibition at 50 µM (Jurkat leukemia cells; Homo sapiens): -3.5%
- Effect on growth of Jurkat cells (Jurkat leukemia cells): inactive

- EC50 (Jurkat leukemia cells; Homo sapiens): ~50 µM
- EC50 (MV4-11 cells; [13]): 0.52 µM
- EC50 [2, 14]: > 50 µM
SMILES: C=CCNC1=C2C[C@@H](C)C[C@H](OC)[C@H](O)[C@@H](C)/C=C(\C)[C@H](OC(N)=O)[C@@H](OC)/C=C\C=C(/C)C(=O)NC(=CC1=O)C2=O [Tanespimycin, tanespimycin]
- EC50 (NB4 cells; [12]): 0.42 µM
- EC50 [3, 15]: > 50 µM

- EC50 (Jurkat leukemia cells; Homo sapiens): > 50 µM
SMILES: COc1cc2ccc(=O)oc2cc1O [Scopoletin, scopoletin]
- inhibition at 50 µM (Jurkat leukemia cells; Homo sapiens): 29.4%
